Data published in patent publication US11358967B2 (Boehringer Ingelheim International GmbH, priority 2016, dated 2022).
pIC50: −log10 of the molar value.

Target: T1, RORγ (Homo sapiens, UniProt P51449)
T1 construct: expressed in transfected cells; host or cells: HEK 293 cells, transiently transfected
T1 sequence (P51449 269-508 limits assumed): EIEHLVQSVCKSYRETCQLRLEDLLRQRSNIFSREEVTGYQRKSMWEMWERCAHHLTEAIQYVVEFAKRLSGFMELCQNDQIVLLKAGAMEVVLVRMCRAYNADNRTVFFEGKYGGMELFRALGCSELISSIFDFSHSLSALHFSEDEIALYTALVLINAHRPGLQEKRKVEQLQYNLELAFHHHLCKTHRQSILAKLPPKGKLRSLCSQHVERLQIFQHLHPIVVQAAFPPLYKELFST
Experiment: Reporter Gene Assay (RGA): RORγ transactivation of a luciferase reporter in transiently transfected HEK 293 cells
Format: cell-based
Details: HEK 293 cells cotransfected with pGL4.3 luc2P/GAL4UAS and pBIND Gal4DBD hRORC LBD; 20-24 h incubation; luciferase readout
Description: Reporter Gene Assay (RGA)
A nuclear receptor transactivation assay is performed to quantitate the ability of test compounds to inhibit RORγ transactivation of a luciferase reporter. […] The system uses transiently transfected HEK 293 cells cotransfected with two plasmids (pGL4.3, luc2P/GAL4UAS/Hygro, and pBIND, Gal4DBD hRORC LBD1-3). The positive control is co-transiently transfected with both plasmids, and the negative control contains the pGL4.3 promoter sequence. Assays are assembled in 384 well plates where transiently transfected cells and test compound at varying concentrations are incubated for 20-24 h. The next day, assays plates are taken out and equilibrated at RT for 20-30 minutes. Bright-Glo™ Luciferase Assay System is used to detect Luciferase production. After addition of Bright GLO detection reagent, the plates are incubated at RT for 20 minutes. The plates are read on an Envision plate reader to measure luminescence signal. The RLU signal is converted to POC relative to control and blank wells.
Compound Dilution Buffer:
Bright Glo Luciferase Assay System: Promega #E2620
Thaw lysis buffer provided in kit, add 100 mL lysis buffer to substrate powder.

Compound | pIC50
CCS(=O)(=O)c1ccc(CNc2nc3ncc(-c4nccnc4C4CC4)nc3n([C@@H](C)C3CC3)c2=O)nc1 [Example 6] | 6.34
CC[C@H](C)n1c(=O)c(NCc2ccc(S(C)(=O)=O)cn2)nc2ncc(-c3c(C)ncnc3C3CC3)nc21 [Example 9] | 5.88
CCS(=O)(=O)c1ccc(CNc2nc3nnc(-c4c(C)ncnc4C4CC4)cc3n([C@@H](C)C3CC3)c2=O)nc1 [Example 12] | 5.54
CC[C@H](C)n1c(=O)c(NCc2ccc(S(=O)(=O)CC)nc2)nc2ncc(-c3c(C)ncnc3C3CC3)nc21 [Example 10] | 5.56
CC[C@H](C)n1c(=O)c(NCc2ccc(S(=O)(=O)CC)cn2)nc2ncc(-c3c(C)ncnc3C3CC3)nc21 [Example 8] | 6.47
CCS(=O)(=O)c1ccc(CNc2nc3ncc(-c4c(C)ncnc4C4CC4)nc3n([C@@H](C)C3CC3)c2=O)nc1 [Example 4] | 6.57
CC[C@H](C)n1c(=O)c(NCc2ccc(S(=O)(=O)CC)cn2)nc2ncc(-c3c(OC)ncnc3C3CC3)nc21 [Example 7] | 6.68
CCS(=O)(=O)c1ccc(CNc2nc3ncc(-c4c(OC)ncnc4C4CC4)nc3n([C@@H](C)C3CC3)c2=O)nc1 [Example 3] | 6.83
CCS(=O)(=O)c1ccc(CNc2nc3ncc(-c4c(C)nc(N)nc4C4CC4)nc3n([C@@H](C)C3CC3)c2=O)nc1 [Example 5] | 6.56
